Test results taken from patent publication US20040023295A1, “Methods and systems for analyzing complex biological systems” (priority 2001, published 2004).

Tested on: Saccharomyces cerevisiae wild type strain BY4743
Assay: Yeast azole drug experiment AF1: metabolite analysis (GC-MS, LC-MS)
Type: cell-based

C[C@@H]1[C@H](O)[C@@H](C)/C=C/C=C/C=C/C=C/C=C/C=C/C=C/[C@H](O[C@@H]2O[C@H](C)[C@@H](O)[C@H](N)[C@@H]2O)C[C@@H]2O[C@](O)(C[C@@H](O)C[C@@H](O)[C@H](O)CC[C@@H](O)C[C@@H](O)CC(=O)O[C@H]1C)C[C@H](O)[C@H]2C(=O)O [Amphoteracin B]
0.5049: Fold Change of metabolite ornithine (platform pLC, p-Value 0.48461244)
0.3299: Fold Change of metabolite methionine (platform pLC, p-Value 0.367502423)
0: Fold Change of metabolite 5hydroxyL-tryptophan (platform nLC, p-Value 1) | Fold Change of metabolite 6-benzylaminopurine (platform nLC, p-Value 1) | Fold Change of metabolite NacetylD-glucosamine (platform nLC, p-Value 1) | Fold Change of metabolite NacetylL-ornithine (platform nLC, p-Value 1) | Fold Change of metabolite abscisic acid (platform nLC, p-Value 1) | Fold Change of metabolite adenine (platform nLC, p-Value 1) | Fold Change of metabolite adenosine (platform nLC, p-Value 1) | Fold Change of metabolite anthranilic acid (platform nLC, p-Value 1) | Fold Change of metabolite argininosuccinate (platform nLC, p-Value 1) | Fold Change of metabolite benzoic acid (platform nLC, p-Value 1) | Fold Change of metabolite catechol (platform nLC, p-Value 1) | Fold Change of metabolite cinnamic acid (platform nLC, p-Value 1) | Fold Change of metabolite citricanoic/itaconi (platform nLC, p-Value 1) | Fold Change of metabolite coumaric acid (platform nLC, p-Value 1) | Fold Change of metabolite cytosine (platform nLC, p-Value 1) | Fold Change of metabolite diaminopimelic acid (platform nLC, p-Value 1) | Fold Change of metabolite dihydrofolic acid (platform nLC, p-Value 1) | Fold Change of metabolite estrone (platform nLC, p-Value 1) | Fold Change of metabolite farnesol (platform nLC, p-Value 1) | Fold Change of metabolite folic acid (platform nLC, p-Value 1) | Fold Change of metabolite gibberellic (platform nLC, p-Value 1) | Fold Change of metabolite guanine (platform nLC, p-Value 1) | Fold Change of metabolite histidine (platform nLC, p-Value 1) | Fold Change of metabolite homogentisic/uric (platform nLC, p-Value 1) | Fold Change of metabolite hydrocortisone (platform nLC, p-Value 1) | Fold Change of metabolite indole3-pyruvic acid (platform nLC, p-Value 1) | Fold Change of metabolite jasmonic acid (platform nLC, p-Value 1) | Fold Change of metabolite luteolin (platform nLC, p-Value 1) | Fold Change of metabolite malonic acid (platform nLC, p-Value 1) | Fold Change of metabolite methionine (platform nLC, p-Value 1) | Fold Change of metabolite phenylpyruvic acid (platform nLC, p-Value 1) | Fold Change of metabolite phosphoenolpyruvate (platform nLC, p-Value 1) | Fold Change of metabolite pinitol (platform nLC, p-Value 1) | Fold Change of metabolite porphobilinogen (platform nLC, p-Value 1) | Fold Change of metabolite retinoic acid (platform nLC, p-Value 1) | Fold Change of metabolite salicylic/HObenzoic (platform nLC, p-Value 1) | Fold Change of metabolite shikimic acid (platform nLC, p-Value 1) | Fold Change of metabolite sinapinic acid (platform nLC, p-Value 1) | Fold Change of metabolite thymine (platform nLC, p-Value 1) | Fold Change of metabolite 4-aminobenzoic acid (platform pLC, p-Value 1) | Fold Change of metabolite 4-methylcatechol (platform pLC, p-Value 1) | Fold Change of metabolite 5hydroxyL-tryptophan (platform pLC, p-Value 1) | Fold Change of metabolite 6benzylaminopurine (platform pLC, p-Value 1) | Fold Change of metabolite NacetylD-glucosamine (platform pLC, p-Value 1) | Fold Change of metabolite NacetylL-glutamate (platform pLC, p-Value 1) | Fold Change of metabolite abscisic acid (platform pLC, p-Value 1) | Fold Change of metabolite adenosine (platform pLC, p-Value 1) | Fold Change of metabolite allantoic acid (platform pLC, p-Value 1) | Fold Change of metabolite anthranilic acid (platform pLC, p-Value 1) | Fold Change of metabolite argininosuccinate (platform pLC, p-Value 1) | Fold Change of metabolite biotin (platform pLC, p-Value 1) | Fold Change of metabolite caffeine (platform pLC, p-Value 1) | Fold Change of metabolite citric acid TME (platform pLC, p-Value 1) | Fold Change of metabolite cytidine (platform pLC, p-Value 1) | Fold Change of metabolite cytosine (platform pLC, p-Value 1) | Fold Change of metabolite diaminopimelic acid (platform pLC, p-Value 1) | Fold Change of metabolite dihydrofolic acid (platform pLC, p-Value 1) | Fold Change of metabolite dipicolinic acid (platform pLC, p-Value 1) | Fold Change of metabolite folic acid (platform pLC, p-Value 1) | Fold Change of metabolite glucosamine (platform pLC, p-Value 1) | Fold Change of metabolite glucosamine6PO4 (platform pLC, p-Value 1) | Fold Change of metabolite histidine (platform pLC, p-Value 1) | Fold Change of metabolite hydrocortisone (platform pLC, p-Value 1) | Fold Change of metabolite itaconic acid dimes (platform pLC, p-Value 1) | Fold Change of metabolite luteolin (platform pLC, p-Value 1) | Fold Change of metabolite niacinamide (platform pLC, p-Value 1) | Fold Change of metabolite nopaline (platform pLC, p-Value 1) | Fold Change of metabolite phosphoenolpyruvate (platform pLC, p-Value 1) | Fold Change of metabolite progesterone (platform pLC, p-Value 1) | Fold Change of metabolite riboflavin (platform pLC, p-Value 1) | Fold Change of metabolite sugar-phosphate (platform pLC, p-Value 1) | Fold Change of metabolite thiamine (platform pLC, p-Value 1) | Fold Change of metabolite thymine (platform pLC, p-Value 1) | Fold Change of metabolite tryptophan (platform pLC, p-Value 1)
0.1153: Fold Change of metabolite adenine (platform pLC, p-Value 0.892253251)
0.4036: Fold Change of metabolite phenylalanine (platform pLC, p-Value 0.573569375)
0.4703: Fold Change of metabolite DL-aminoadipic acid (platform pLC, p-Value 0.229215472)
0.6344: Fold Change of metabolite asparagine (platform pLC, p-Value 0.526485859)
0.01279: Fold Change of metabolite 4ambutyrate/dimglyc (platform pLC, p-Value 0.920009792)
0.2011: Fold Change of metabolite serine (platform pLC, p-Value 0.716422123)
−0.03348: Fold Change of metabolite glutathione (platform pLC, p-Value 0.951676383)
−0.4606: Fold Change of metabolite mevalonic lactone (platform pLC, p-Value 0.251617022)
0.2057: Fold Change of metabolite hypoxanthine (platform pLC, p-Value 0.74082632)
0.4543: Fold Change of metabolite mannitol (platform pLC, p-Value 0.575742486)
0.6707: Fold Change of metabolite proline (platform pLC, p-Value 0.474762121)
0.3145: Fold Change of metabolite threonine/homoserin (platform pLC, p-Value 0.668114613)
0.5237: Fold Change of metabolite pipecolic acid (platform pLC, p-Value 0.556385814)
−0.1684: Fold Change of metabolite pyridoxine (platform pLC, p-Value 0.776529987)
1.798: Fold Change of metabolite citrulline (platform pLC, p-Value 0.433366283)
1.178: Fold Change of metabolite selenoDL-methionine (platform pLC, p-Value 0.888275646)
0.7598: Fold Change of metabolite guanosine (platform pLC, p-Value 0.886514477)
0.3981: Fold Change of metabolite glutamine/lysine (platform pLC, p-Value 0.618892728)
0.2746: Fold Change of metabolite leucine/isoleucine/ (platform pLC, p-Value 0.723852356)
1.319: Fold Change of metabolite NacetylL-ornithine (platform pLC, p-Value 0.392871315)
0.2602: Fold Change of metabolite alanine/sarcosine (platform pLC, p-Value 0.540255177)
0.4662: Fold Change of metabolite arginine (platform pLC, p-Value 0.522893347)
−0.9989: Fold Change of metabolite nicotinic acid (platform pLC, p-Value 7.53474E−05)
0.4341: Fold Change of metabolite glutamate (platform pLC, p-Value 0.563874982)
0.3594: Fold Change of metabolite aspartic acid (platform pLC, p-Value 0.626001257)
